Results as given in US20250163061A1 (Bala Therapeutics, Inc., priority 2021, published 2025).
One block for each molecule: values may come before it.

Experiments:
[1] = biological target: recombinant MEN1 protein (Homo sapiens (Human), UniProt O00255); experiment: Primary fluorescence polarization assay of MEN1 activity inhibition (MEN1 / MLL4-43 peptide interaction); format: binding; details: MEN1 10 nM, fluorescein-labeled MLL4-43 peptide 0.5 nM
Method: Compound activity was determined using recombinant MEN1 protein (Creativebiomart, Cat #MEN1-35H) and a custom fluorescein-labeled MLL4-43 peptide (Eton Bioscience Inc.). Interaction between MEN1 and MLL4-43 in the presence of compounds was determined by fluorescence polarization assay using a Microplate Reader ClarioStar Plus. The reaction was carried out in assay buffer (50 mM TRIS-HCl pH 7.4-7.6, 50 mM NaCl, 1 mM DTT, 0.1 mg/ml BSA). The compounds were dispensed on a 384 well Diamond Well Plate (Axigen, Cat #P-384-120SQ-C-S) using the Biomek FX liquid handling system at 100× solutions of compounds in DMSO. 2×MEN1 mix (final concentration of MEN1 10 nM) was prepared in Assay buffer and 10 μl of mixture per well was added into 384 w white Reaction plate with NBS (Corning, Cat #4513). 10 μl of Assay buffer w/o MEN1 was used for negative control. Plates were centrifuged for 1 min at 100 g. Next step the Compounds were added to Reaction plate using Biomek station via following steps: 3 μl of 100× compounds (in DMSO) were mixed thoroughly with 27 μl Assay Buffer, then 2 μl of this mixture was added to Reaction plate with 10 μl of MEN1 mix. Plates were centrifuged for 1 min at 100 g and incubated for 20 min at room temperature. Next 8 μL of MLL4-43 peptide per well was added to final concentration of MLL 0.5 nM. Plates were incubated for 1 hour at room temperature. Then fluorescence polarization was measured using Microplate Reader.

[2] = system: MV4-11; experiment: MV4-11 cellular growth inhibition assay (CellTiter-Glo); format: cell-based; details: Homo sapiens, 168 h, MV4-11 cells, 7 days of incubation
Method: (§1) HEK293 (Institute of Cytology Russian Academy of Science), MV4-11 (ATCC, CRL-9591), MOLM-13 (AcceGen, ABC-TC517S) were seeded at a density of 500 cells per well (HEK293) and 2000 cells per well (MV4-11, MOLM-13) in a 384-well clear bottom plate (Greiner Cat #781090) in 45 μl total volume of DMEM (PanEco, Cat #C420, Russia) or RPMI (PanEco, Cat #C330, Russia) with 10% FBS (HyClone Cat #SV30160.03). HEK293 were allowed to adhere overnight at 37° C., 5% CO2. 500× compounds solutions in DMSO (Sigma Cat #D2650) were prepared into Cmpnds plate (Diamond Well Plate, Axigen, Cat #P-384-120SQ-C-S) and DMSO only control was included. 1 μl of 500× compounds (Cmpnds plate) was added to 49 μl of culture medium into Dilution plate (Diamond Well Plate, Axigen, Cat #P-384-120SQ-C-S), mixed and then 5 μl of 10× compounds solutions were transferred to cells followed by centrifugation at 100 g for 1 min. Final DMSO concentration was 0.2%. After 3 days of incubation, 10 μl of 1× compounds were added to cells. After 7 days of incubation, 12 μl of CellTiter-Glo (Promega, CAT #G7572) were added to the cells, plate was centrifuged at 100 g for 1 min and luminescence signal was measured using Microplate Reader (CLARIOStar).

[3] = system: MOLM-13; experiment: MOLM-13 cellular growth inhibition assay (CellTiter-Glo); format: cell-based; details: Homo sapiens, 168 h, MOLM-13 cells, 7 days of incubation
Method: as §1

[4] = HEK293 cellular growth inhibition assay (CellTiter-Glo); format: cell-based; details: human, HEK293 cells, 7 days of incubation
Method: as §1

recombinant MEN1 protein, sequence (O00255 whole entry): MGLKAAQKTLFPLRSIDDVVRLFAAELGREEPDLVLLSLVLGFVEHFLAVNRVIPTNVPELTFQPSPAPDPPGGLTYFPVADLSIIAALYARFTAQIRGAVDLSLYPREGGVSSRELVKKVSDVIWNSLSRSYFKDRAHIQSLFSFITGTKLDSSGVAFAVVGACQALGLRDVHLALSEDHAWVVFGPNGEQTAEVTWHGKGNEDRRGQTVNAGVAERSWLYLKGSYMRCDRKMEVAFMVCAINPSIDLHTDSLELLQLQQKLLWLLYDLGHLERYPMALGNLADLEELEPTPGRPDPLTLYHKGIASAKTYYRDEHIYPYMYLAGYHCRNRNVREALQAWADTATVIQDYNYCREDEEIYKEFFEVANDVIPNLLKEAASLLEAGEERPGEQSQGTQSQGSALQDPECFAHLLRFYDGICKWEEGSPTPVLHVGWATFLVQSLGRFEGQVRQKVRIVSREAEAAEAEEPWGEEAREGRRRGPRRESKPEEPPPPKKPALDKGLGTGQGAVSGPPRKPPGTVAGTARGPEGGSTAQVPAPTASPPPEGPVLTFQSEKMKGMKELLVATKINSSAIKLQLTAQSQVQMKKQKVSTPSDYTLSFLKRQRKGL

EC50 [1]: 0.075 to 0.5 µM
SMILES: Cc1c(CN2CCC3(CC2)CN(c2ncnc4ccc(CC(F)(F)F)cc24)C3)ccc2c1cc(C#N)n2C[C@@H]1CCC(=O)N[C@H]1c1ccccc1 [Compound 100, 4-Methyl-1-{[(2R,3S)-6-oxo-2-phenylpiperidin-3-yl]methyl}-5-({2-[6-(2,2,2-trifluoroethyl)quinazolin-4-yl]-2,7-diazaspiro[3.5]non-7-yl}methyl)-1H-indole-2-carbonitrile]

EC50 [1]: ≤ 0.075 µM
SMILES: Cc1c(CN2CCC3(CC2)CN(c2cnnc4ccc(CC(F)(F)F)cc24)C3)ccc2c1cc(C#N)n2CC(C)N1CCN(S(C)(=O)=O)CC1 (centres unmarked) [Compound 80, 4-Methyl-1-[2-(4-methylsulfonylpiperazin-1-yl)propyl]-5-[[2-[6-(2,2,2-trifluoroethyl)cinnolin-4-yl]-2,7-diazaspiro[3.5]nonan-7-yl]methyl]indole-2-carbonitrile]
CC50 [2]: 0.1 to 0.5 µM | CC50 [3]: 1 to 5 µM | CC50 at 7 days [4]: 5 to 10 µM

EC50 [1]: 1 to 5 µM
SMILES: Cc1c(CN2CCC3(CC2)CN(c2ncnc4ccc(CC(F)(F)F)cc24)C3)ccc2c1cc(C#N)n2CC1CNC(=O)N1 (centres unmarked) [Compound 6, 4-Methyl-1-[(2-oxoimidazolidin-4-yl)methyl]-5-({2-[6-(2,2,2-trifluoroethyl)quinazolin-4-yl]-2,7-diazaspiro[3.5]non-7-yl}methyl)-1H-indole-2-carbonitrile]

EC50 [1]: 0.075 to 0.5 µM
SMILES: Cc1c(CN2CCC3(CC2)CN(c2ncnc4ccc(CC(F)(F)F)cc24)C3)ccc2c1cc(C#N)n2CC1CN(CC(C)C)C(=O)CO1 (centres unmarked) [Compound 31, 1-[(4-Isobutyl-5-oxomorpholin-2-yl)methyl]-4-methyl-5-({2-[6-(2,2,2-trifluoroethyl)quinazolin-4-yl]-2,7-diazaspiro[3.5]non-7-yl}methyl)-1H-indole-2-carbonitrile]

SMILES: Cc1c(CN2CCC3(CC2)CN(c2nncc4ccc(CC(F)(F)F)cc24)C3)ccc2c1cc(C#N)n2CC(C)N1CCN(S(C)(=O)=O)CC1 (centres unmarked) [Compound 79, 4-Methyl-1-[2-(4-methylsulfonylpiperazin-1-yl)propyl]-5-[[2-[7-(2,2,2-trifluoroethyl)phthalazin-1-yl]-2,7-diazaspiro[3.5]nonan-7-yl]methyl]indole-2-carbonitrile]
CC50 [2]: 0.5 to 1 µM | CC50 [3]: 1 to 5 µM | CC50 at 7 days [4]: 5 to 10 µM

EC50 [1]: 0.075 to 0.5 µM
SMILES: CCS(=O)(=O)N[C@H]1CC[C@H](Cn2c(C#N)cc3c(C)c(CN4CCC5(CC4)CN(c4ncnc6ccc(CC(F)(F)F)cc46)C5)ccc32)CC1 [Compound 41]

SMILES: CC(=O)NC12CC(Cn3c(C#N)cc4c(C)c(CN5CCC6(CC5)CN(c5ncnc7ccc(CC(F)(F)F)cc57)C6)ccc43)(C1)C2 [Compound 59, N-[3-[[2-Cyano-4-methyl-5-[[2-[6-(2,2,2-trifluoroethyl)quinazolin-4-yl]-2,7-diazaspiro[3.5]nonan-7-yl]methyl]indol-1-yl]methyl]-1-bicyclo[1.1.1]pentanyl]acetamide]
CC50 [2]: ≤ 0.1 µM | CC50 [3]: ≤ 0.1 µM | CC50 at 7 days [4]: 2 to 5 µM

SMILES: C=CC(=O)N1CCN(C(C)Cn2c(C#N)cc3c(C)c(CN4CCC5(CC4)CN(c4ncnc6ccc(CC(F)(F)F)cc46)C5)ccc32)CC1 (centres unmarked) [Compound 63, 1-[2-(4-Acryloylpiperazin-1-yl)propyl]-4-methyl-5-({2-[6-(2,2,2-trifluoroethyl)quinazolin-4-yl]-2,7-diazaspiro[3.5]non-7-yl}methyl)-1H-indole-2-carbonitrile]
CC50 [2]: 0.1 to 0.5 µM | CC50 [3]: 0.1 to 0.5 µM | CC50 at 7 days [4]: 2 to 5 µM

SMILES: Cc1c(CN2CCC3(CC2)CN(c2ncnc4ccc(CC(F)(F)F)cc24)C3)ccc2c1cc(C#N)n2CC(C)N1CCNC(=O)C1 (centres unmarked) [Compound 93, 4-Methyl-1-[2-(3-oxopiperazin-1-yl)propyl]-5-({2-[6-(2,2,2-trifluoroethyl)quinazolin-4-yl]-2,7-diazaspiro[3.5]non-7-yl}methyl)-1H-indole-2-carbonitrile]
CC50 [2]: ≤ 0.1 µM | CC50 [3]: 0.5 to 1 µM | CC50 at 7 days [4]: 2 to 5 µM

EC50 [1]: 0.075 to 0.5 µM
SMILES: Cc1c(CN2CCC3(CC2)CN(c2ncnc4ccc(CC(F)(F)F)cc24)C3)ccc2c1cc(C#N)n2CC1CN(S(C)(=O)=O)CCO1 (centres unmarked) [Compound 9]

SMILES: Cc1c(CN2CCC3(CC2)CN(c2ncnc4ccc(CC(F)(F)F)cc24)C3)ccc2c1cc(C#N)n2CCN1CCOCC1 [Compound 97, 4-Methyl-1-(2-morpholin-4-ylethyl)-5-({2-[6-(2,2,2-trifluoroethyl)quinazolin-4-yl]-2,7-diazaspiro[3.5]non-7-yl}methyl)-1H-indole-2-carbonitrile]
CC50 [2]: 0.5 to 1 µM | CC50 [3]: 1 to 5 µM | CC50 at 7 days [4]: 2 to 5 µM

SMILES: COc1cc2c(cc1CN1CCC3(CC1)CN(c1ncnc4ccc(CC(F)(F)F)cc14)C3)cc(C#N)n2CC(C)N1CCN(S(C)(=O)=O)CC1 (centres unmarked) [Compound 20, 6-Methoxy-1-{2-[4-(methylsulfonyl)piperazin-1-yl]propyl}-5-({2-[6-(2,2,2-trifluoroethyl)quinazolin-4-yl]-2,7-diazaspiro[3.5]non-7-yl}methyl)-1H-indole-2-carbonitrile]
CC50 [2]: 0.1 to 0.5 µM | CC50 [3]: 1 to 5 µM | CC50 at 7 days [4]: 2 to 5 µM

SMILES: C=CC(=O)N1CCN(CCCCn2c(C#N)cc3c(C)c(CN4CCC5(CC4)CN(c4ncnc6ccc(CC(F)(F)F)cc46)C5)ccc32)CC1 [Compound 65, 1-[4-(4-Acryloylpiperazin-1-yl)butyl]-4-methyl-5-({2-[6-(2,2,2-trifluoroethyl)quinazolin-4-yl]-2,7-diazaspiro[3.5]non-7-yl}methyl)-1H-indole-2-carbonitrile]
CC50 [2]: 0.1 to 0.5 µM | CC50 [3]: 1 to 5 µM | CC50 at 7 days [4]: ≤ 2 µM

EC50 [1]: ≤ 0.075 µM
SMILES: CCS(=O)(=O)N1CCCN(C(C)Cn2c(C#N)cc3c(C)c(CN4CCC5(CC4)CN(c4ncnc6ccc(CC(F)(F)F)cc46)C5)ccc32)CC1 (centres unmarked) [Compound 53, 1-[2-(4-Ethylsulfonyl-1,4-diazepan-1-yl)propyl]-4-methyl-5-[[2-[6-(2,2,2-trifluoroethyl)quinazolin-4-yl]-2,7-diazaspiro[3.5]nonan-7-yl]methyl]indole-2-carbonitrile]
CC50 [2]: ≤ 0.1 µM | CC50 [3]: 0.1 to 0.5 µM | CC50 at 7 days [4]: 5 to 10 µM

EC50 [1]: 1 to 5 µM
SMILES: Cc1c(CN2CCC3(CC2)CN(c2ncnc4ccc(CC(F)(F)F)cc24)C3)ccc2c1cc(C#N)n2CC1CN(C)C(=O)CN1 (centres unmarked) [Compound 46, 4-methyl-1-[(4-methyl-5-oxo-piperazin-2-yl)methyl]-5-[[2-[6-(2,2,2-trifluoroethyl)quinazolin-4-yl]-2,7-diazaspiro[3.5]nonan-7-yl]methyl]indole-2-carbonitrile]

SMILES: CNC(=O)NC12CC(Cn3c(C#N)cc4c(C)c(CN5CCC6(CC5)CN(c5ncnc7ccc(CC(F)(F)F)cc57)C6)ccc43)(C1)C2 [Compound 60, 1-[3-[[2-Cyano-4-methyl-5-[[2-[6-(2,2,2-trifluoroethyl)quinazolin-4-yl]-2,7-diazaspiro[3.5]nonan-7-yl]methyl]indol-1-yl]methyl]-1-bicyclo[1.1.1]pentanyl]-3-methyl-urea]
CC50 [2]: ≤ 0.1 µM | CC50 [3]: ≤ 0.1 µM | CC50 at 7 days [4]: 2 to 5 µM

SMILES: CN(C)C/C=C/C(=O)N1CCN(CCn2c(C#N)cc3cc(CN4CCC5(CC4)CN(c4ncnc6ccc(CC(F)(F)F)cc46)C5)ccc32)CC1 [Compound 99]
CC50 [2]: 1 to 5 µM | CC50 [3]: 1 to 5 µM | CC50 at 7 days [4]: ≤ 2 µM
